Laboratory results as given in patent US5807535A, “Metal complexes of hydroxyaryl containing aminocarboxylic acid chelating agents” (Australian Nuclear Science & Technology Organisation, priority 1992, dated 1998).
Where two headings read alike, the source gives them in different places.

Test: Biodistribution of 99mTc complexes in rats
Type: in vivo, Australian Albino Wistar Rats
Details: rats; for tissue uptake at 0.5 min / tissue uptake at 1 min / tissue uptake at 0.05 h / tissue uptake at 5 min / tissue uptake at 10 min: rat; for tissue uptake at 0.5 min: 30 sec
Procedure: A typical method of radiolabelling of the chelator was achieved by dissolving the chelator in a basic solution of saline. The pH was then adjusted to approx. 6 with HCl. Excess stannous chloride was added to the resultant solution followed by one equivalent volume of sodium ^99m TcO4 (10-50 mCi/ml). Final concentration of the chelator was approx. 1 mg/ml. The efficacy of labelling was determined by ITLC-SG. For each product only one main radiochemical species was observed. Each complex was diluted to 15 μCi/100 μl with saline. […] (See FIGS. 1A and 1B).
Selected data from biodistribution results of technetium-99m complexes of No. 1, No. 2 and No 4 in the liver, kidney and blood at 3 minutes is tabulated below.

[1] = blood, read-out: biodistribution blood
[2] = bone, read-out: biodistribution bone
[3] = brain, read-out: biodistribution brain
[4] = eyes, read-out: biodistribution eyes
[5] = heart, read-out: biodistribution heart
[6] = kidneys, read-out: biodistribution kidneys
[7] = liver, read-out: biodistribution liver
[8] = lungs, read-out: biodistribution lungs
[9] = muscle, read-out: biodistribution muscle
[10] = pancreas, read-out: biodistribution pancreas
[11] = skin, read-out: biodistribution skin
[12] = spleen, read-out: biodistribution spleen
[13] = stomach, read-out: biodistribution stomach
[14] = tail, read-out: biodistribution tail
[15] = thymus, read-out: biodistribution thymus
[16] = thyroid, read-out: biodistribution thyroid
[17] = total git, read-out: biodistribution tot GIT

## O=C(O)CN(CCN(CC(=O)O)CC(=O)Nc1ccccc1O)CC(=O)Nc1ccccc1O [Compound 1]
[1]
  tissue uptake at 0.5 min: 1.93 %ID/g
  tissue uptake at 1 min: 1.71 %ID/g
  tissue uptake at 5 min: 0.83 %ID/g
  tissue uptake at 10 min: 0.71 %ID/g
blood, 3 minutes, selected data, read-out: Blood
  tissue uptake at 0.05 h: 1.16 %ID/g
[2]
  tissue uptake at 0.5 min: 0.31 %ID/g
  tissue uptake at 1 min: 0.32 %ID/g
  tissue uptake at 5 min: 0.25 %ID/g
  tissue uptake at 10 min: 0.19 %ID/g
bone, 3 min, read-out: biodistribution bone
  tissue uptake at 0.05 h: 0.26 %ID/g
[3]
  tissue uptake at 0.5 min: 0.14 %ID/g
  tissue uptake at 1 min: 0.09 %ID/g
  tissue uptake at 5 min: 0.05 %ID/g
  tissue uptake at 10 min: 0.04 %ID/g
brain, 3 min, read-out: biodistribution brain
  tissue uptake at 0.05 h: 0.06 %ID/g
[4]
  tissue uptake at 0.5 min: 0.19 %ID/g
  tissue uptake at 1 min: 0.17 %ID/g
  tissue uptake at 5 min: 0.17 %ID/g
  tissue uptake at 10 min: 0.13 %ID/g
eyes, 3 min, read-out: biodistribution eyes
  tissue uptake at 0.05 h: 0.18 %ID/g
[5]
  tissue uptake at 0.5 min: 0.75 %ID/g
  tissue uptake at 1 min: 0.67 %ID/g
  tissue uptake at 5 min: 0.33 %ID/g
  tissue uptake at 10 min: 0.27 %ID/g
heart, 3 min, read-out: biodistribution heart
  tissue uptake at 0.05 h: 0.46 %ID/g
kidney, 3 minutes, selected data, read-out: Kidney
  tissue uptake at 0.05 h: 4.12 %ID/g
[6]
  tissue uptake at 0.5 min: 6.73 %ID/g
  tissue uptake at 1 min: 6.55 %ID/g
  tissue uptake at 5 min: 2.87 %ID/g
  tissue uptake at 10 min: 2.72 %ID/g
kidneys, 3 min, read-out: biodistribution kidneys
  tissue uptake at 0.05 h: 4.12 %ID/g
[7]
  tissue uptake at 0.5 min: 1.73 %ID/g
  tissue uptake at 1 min: 2.01 %ID/g
  tissue uptake at 5 min: 1.34 %ID/g
  tissue uptake at 10 min: 0.76 %ID/g
liver, 3 minutes, selected data, read-out: Liver
  tissue uptake at 0.05 h: 1.54 %ID/g
[8]
  tissue uptake at 0.5 min: 1.15 %ID/g
  tissue uptake at 1 min: 1.13 %ID/g
  tissue uptake at 5 min: 0.54 %ID/g
  tissue uptake at 10 min: 0.46 %ID/g
lungs, 3 min, read-out: biodistribution lungs
  tissue uptake at 0.05 h: 0.8 %ID/g
[9]
  tissue uptake at 0.5 min: 0.28 %ID/g
  tissue uptake at 1 min: 0.27 %ID/g
  tissue uptake at 5 min: 0.27 %ID/g
  tissue uptake at 10 min: 0.15 %ID/g
muscle, 3 min, read-out: biodistribution muscle
  tissue uptake at 0.05 h: 0.26 %ID/g
[10]
  tissue uptake at 0.5 min: 0.49 %ID/g
  tissue uptake at 1 min: 0.51 %ID/g
  tissue uptake at 5 min: 0.44 %ID/g
  tissue uptake at 10 min: 0.3 %ID/g
pancreas, 3 min, read-out: biodistribution pancreas
  tissue uptake at 0.05 h: 0.44 %ID/g
[11]
  tissue uptake at 0.5 min: 0.37 %ID/g
  tissue uptake at 1 min: 0.43 %ID/g
  tissue uptake at 5 min: 0.53 %ID/g
  tissue uptake at 10 min: 0.4 %ID/g
skin, 3 min, read-out: biodistribution skin
  tissue uptake at 0.05 h: 0.49 %ID/g
[12]
  tissue uptake at 0.5 min: 0.53 %ID/g
  tissue uptake at 1 min: 0.42 %ID/g
  tissue uptake at 5 min: 0.2 %ID/g
  tissue uptake at 10 min: 0.15 %ID/g
spleen, 3 min, read-out: biodistribution spleen
  tissue uptake at 0.05 h: 0.26 %ID/g
[13]
  tissue uptake at 0.5 min: 0.14 %ID/g
  tissue uptake at 1 min: 0.28 %ID/g
  tissue uptake at 5 min: 0.11 %ID/g
  tissue uptake at 10 min: 0.12 %ID/g
stomach, 3 min, read-out: biodistribution stomach
  tissue uptake at 0.05 h: 0.32 %ID/g
[14]
  tissue uptake at 0.5 min: 0.68 %ID/g
  tissue uptake at 1 min: 0.56 %ID/g
  tissue uptake at 5 min: 0.73 %ID/g
  tissue uptake at 10 min: 0.83 %ID/g
tail, 3 min, read-out: biodistribution tail
  tissue uptake at 0.05 h: 0.8 %ID/g
[15]
  tissue uptake at 0.5 min: 0.38 %ID/g
  tissue uptake at 1 min: 0.35 %ID/g
  tissue uptake at 5 min: 0.19 %ID/g
  tissue uptake at 10 min: 0.14 %ID/g
thymus, 3 min, read-out: biodistribution thymus
  tissue uptake at 0.05 h: 0.27 %ID/g
[16]
  tissue uptake at 0.5 min: 1.42 %ID/g
  tissue uptake at 1 min: 1.15 %ID/g
  tissue uptake at 5 min: 0.59 %ID/g
  tissue uptake at 10 min: 0.4 %ID/g
thyroid, 3 min, read-out: biodistribution thyroid
  tissue uptake at 0.05 h: 1.17 %ID/g
[17]
  tissue uptake at 0.5 min: 0.27 %ID/g
  tissue uptake at 1 min: 0.34 %ID/g
  tissue uptake at 5 min: 0.79 %ID/g
  tissue uptake at 10 min: 1.22 %ID/g
Total git, 3 min, read-out: biodistribution tot GIT
  tissue uptake at 0.05 h: 0.59 %ID/g
3 min
  biodistribution blood: 1.16 % Injected dose per gram
  biodistribution liver: 1.54 % Injected dose per gram
